Target: T1, HDAC6 (Homo sapiens, UniProt Q9UBN7)
T1 sequence (Q9UBN7 1-1215): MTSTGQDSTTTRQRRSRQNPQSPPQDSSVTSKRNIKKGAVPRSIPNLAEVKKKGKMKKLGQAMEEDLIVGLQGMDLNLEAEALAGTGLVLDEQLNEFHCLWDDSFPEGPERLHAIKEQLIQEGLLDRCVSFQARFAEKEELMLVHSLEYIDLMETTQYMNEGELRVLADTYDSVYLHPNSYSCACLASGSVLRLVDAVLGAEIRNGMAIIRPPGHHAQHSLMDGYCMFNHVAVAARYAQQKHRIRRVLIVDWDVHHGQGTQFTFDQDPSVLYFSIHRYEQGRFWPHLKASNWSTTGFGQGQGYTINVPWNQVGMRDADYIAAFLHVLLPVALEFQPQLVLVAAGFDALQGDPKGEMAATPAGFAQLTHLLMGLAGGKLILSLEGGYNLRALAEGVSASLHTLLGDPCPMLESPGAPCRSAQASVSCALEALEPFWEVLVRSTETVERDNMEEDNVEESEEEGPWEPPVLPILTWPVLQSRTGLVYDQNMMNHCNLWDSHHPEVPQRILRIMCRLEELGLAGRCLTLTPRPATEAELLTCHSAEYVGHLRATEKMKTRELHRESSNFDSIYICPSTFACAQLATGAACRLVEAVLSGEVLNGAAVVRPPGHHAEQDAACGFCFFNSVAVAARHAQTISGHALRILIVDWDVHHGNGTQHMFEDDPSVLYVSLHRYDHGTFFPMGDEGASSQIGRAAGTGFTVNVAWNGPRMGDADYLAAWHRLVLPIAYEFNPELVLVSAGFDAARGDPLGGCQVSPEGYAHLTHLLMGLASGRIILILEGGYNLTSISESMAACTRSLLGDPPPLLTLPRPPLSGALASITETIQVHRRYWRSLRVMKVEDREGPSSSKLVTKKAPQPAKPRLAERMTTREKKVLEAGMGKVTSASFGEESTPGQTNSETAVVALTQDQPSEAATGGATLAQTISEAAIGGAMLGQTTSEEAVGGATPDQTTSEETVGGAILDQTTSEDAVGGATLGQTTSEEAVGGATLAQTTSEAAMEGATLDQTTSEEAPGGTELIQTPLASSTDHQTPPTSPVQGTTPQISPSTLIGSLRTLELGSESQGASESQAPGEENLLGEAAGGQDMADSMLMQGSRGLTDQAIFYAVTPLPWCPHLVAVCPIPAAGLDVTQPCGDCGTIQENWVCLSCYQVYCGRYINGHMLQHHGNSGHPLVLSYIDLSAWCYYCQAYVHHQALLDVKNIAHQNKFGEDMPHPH
Assay: Fluorogenic HDAC inhibition assay, purified enzyme
Protocol: Fluorogenic HDAC inhibition assay. Boc-Lys(Ac)-7-amino-4-methylcoumarin (Boc-Lys(Ac)-AMC) was used as substrate for the HDAC assays. […] Trypsin was used to stop the reaction, releasing free AMC. The trypsin solution was prepared as follow: trypsin was dissolved in HDAC buffer to give a concentration of 10 mg/mL. Release of AMC was monitored by measuring the fluorescence at 460 nm (lex = 390 nm) with a microplate reader (SpectraMax Gemini) at 37 °C. The AMC signals were recorded against a blank with buffer, substrate and trypsin but without the enzyme. All experiments were carried out at least in triplicate.
For standard HDAC assays, 50 µL of HDAC buffer was mixed with 10 µL of diluted enzyme solution in HDAC buffer at room temperature. The HDAC reaction was started by adding 40 µL of substrate solution in HDAC buffer followed by 30 min of incubation with stirring at 37 °C. The reaction was stopped by adding 100 µL of trypsin solution. After a 10 min incubation with stirring at 37 °C, the release of AMC was monitored by measuring the fluorescence. For HDAC inhibition assays, inhibitor diluted in 50 µL of HDAC buffer was mixed with 10 µL of diluted enzyme solution in HDAC buffer at room temperature. The HDAC reaction was started by adding 40 µL of substrate solution in HDAC buffer followed by 30 min of incubation with stirring at 37 °C. The reaction was stopped by adding 100 µL of trypsin solution. After a 10 min incubation with stirring at 37 °C, the release of AMC was monitored by measuring the fluorescence.

Compound: CCC(CC)(c1ccc(C(=O)NCCCCCC(=O)NO)cc1)c1ccc(OCC(O)C(C)(C)C)c(C)c1 (stereo not drawn) [DK-406, 4-(3-(4-(2-hydroxy-3,3-dimethylbutoxy)-3-methylphenyl)pentan-3-yl)-N-(6-(hydroxyamino)-6-oxohexyl)benzamide]
- IC50: 0.557 µM

Compound: CCC(CC)(c1ccc(OCCCCCCC(=O)NO)c(C)c1)c1ccc(OCC(O)C(C)(C)C)c(C)c1 (stereo not drawn) [DK-347, N-hydroxy-7-(4-(3-(4-(2-hydroxy-3,3-dimethylbutoxy)-3-methylphenyl)pentan-3-yl)-2-methylphenoxy)heptanamide]
- IC50: 3.94 µM

Compound: CCC(CC)(c1ccc(OCCCCC(=O)NO)c(C)c1)c1ccc(OCC(O)C(C)(C)C)c(C)c1 (stereo not drawn) [DK-320, N-hydroxy-5-(4-(3-(4-(2-hydroxy-3,3-dimethylbutoxy)-3-methylphenyl)pentan-3-yl)-2-methylphenoxy)pentanamide]
- IC50: 5.03 µM

Compound: CCC(CC)(c1ccc(OCCCCCC(=O)NO)c(C)c1)c1ccc(OCC(O)C(C)(C)C)c(C)c1 (stereo not drawn) [DK-319, N-hydroxy-6-(4-(3-(4-(2-hydroxy-3,3-dimethylbutoxy)-3-methylphenyl)pentan-3-yl)-2-methylphenoxy)hexanamide]
- IC50: 2.65 µM

Compound: CCC(CC)(c1ccc(OCCCCC(=O)NO)cc1)c1ccc(OCCC(C)(C)C)c(C)c1 [DK-405, 5-(4-(3-(4-(3,3-dimethylbutoxy)-3-methylphenyl)pentan-3-yl)phenoxy)-N-hydroxypentanamide]
- IC50: 1.97 µM

Compound: CCC(CC)(c1ccc(OCC(O)CCC(=O)NO)c(C)c1)c1ccc(OCC(O)C(C)(C)C)c(C)c1 (stereo not drawn) [DK-305, N,4-dihydroxy-5-(4-(3-(4-(2-hydroxy-3,3-dimethylbutoxy)-3-methylphenyl)pentan-3-yl)-2-methylphenoxy)pentanamide]
- IC50: 29.2 µM

Compound: CCC(CC)(c1ccc(OCC(O)C(C)(C)C)c(C)c1)c1ccc(C(=O)NCCCCCC(=O)NO)c(C)c1 (stereo not drawn) [DK-361, 4-(3-(4-(2-hydroxy-3,3-dimethylbutoxy)-3-methylphenyl)pentan-3-yl)-N-(6-(hydroxyamino)-6-oxohexyl)-2-methylbenzamide]
- IC50: 3.4 µM

Compound: CCC(CC)(c1ccc(OCC(O)C(C)(C)C)c(C)c1)c1ccc(C(=O)NCCCCCCC(=O)NO)c(C)c1 (stereo not drawn) [DK-362, 4-(3-(4-(2-hydroxy-3,3-dimethylbutoxy)-3-methylphenyl)pentan-3-yl)-N-(7-(hydroxyamino)-7-oxoheptyl)-2-methylbenzamide]
- IC50: 1.08 µM

Compound: CCC(CC)(c1ccc(OCCCCC(=O)NO)cc1)c1ccc(OCC(O)C(C)(C)C)c(C)c1 (stereo not drawn) [DK-381, N-hydroxy-5-(4-(3-(4-(2-hydroxy-3,3-dimethylbutoxy)-3-methylphenyl)pentan-3-yl)phenoxy)pentanamide]
- IC50: 3.13 µM

Source: patent EP2794556B1, “BIS-(ARYL/HETEROARYL)-METHYLENE COMPOUNDS, PHARMACEUTICAL COMPOSITIONS CONTAINING SAME AND THEIR USE FOR TREATING CANCER” (Gleason, James L., priority 2011, dated 2013)
